Results taken from patent publication US20110129883A1, “INACTIVATION OF GENES OF THE MEP PATHWAY” (BIOAGENCY AG, priority 2001, published 2011).

System: E. coli transformed with the synthetic operon
Format: cell-based

Structure (SMILES): O=CN(O)CCCP(=O)(O)O [fosmidomycin]
- bacterial growth under fosmidomycin: at a reduced rate and died
